Experimental findings from ChEMBL document CHEMBL4834431, “Design of Dimeric Bile Acid Derivatives as Potent and Selective Human NTCP Inhibitors” (J Med Chem, 2021) are described below.

Data set [1] can be described thus: Toxicity in C57B/L mouse assessed as effect on body weight at 50 mg/kg, ip administered twice daily for 3 days. Type of data set: organism-based. To be noted: in vivo, 72 h, time 3 day.
The nature of data set [2]: Plasma protein binding in human. In kind it is ADME, cell-free. Particulars: read-out: PPB.
Data set [3] addresses T1, Hepatic sodium/bile acid cotransporter (Homo sapiens, UniProt Q14973).
T1 sequence (Q14973 whole entry): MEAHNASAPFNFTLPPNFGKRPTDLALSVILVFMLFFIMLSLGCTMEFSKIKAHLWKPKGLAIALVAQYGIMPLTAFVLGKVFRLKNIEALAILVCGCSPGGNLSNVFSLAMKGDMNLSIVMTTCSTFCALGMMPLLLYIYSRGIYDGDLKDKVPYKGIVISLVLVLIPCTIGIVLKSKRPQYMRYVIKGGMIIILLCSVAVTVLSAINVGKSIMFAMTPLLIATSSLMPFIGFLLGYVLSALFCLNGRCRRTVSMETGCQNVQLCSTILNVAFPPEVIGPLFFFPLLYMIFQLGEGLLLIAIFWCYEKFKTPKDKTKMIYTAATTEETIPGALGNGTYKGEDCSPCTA
Description: Inhibition of human NTCP-mediated [3H]-TCA uptake expressed in human HepG2 cells in presence of 50 % FBS. In kind it is cell-based.

A short description of data set [4]: Stability in human liver microsomes assessed as half life at 1 uM preincubated for 5 mins followed by NADPH addition and measured upto 60 mins by LC-MS analysis. Type of data set: ADME, Microsome. Particulars: time 65 min. (Liver microsomes are vesicles of endoplasmic reticulum, rich in cytochrome P450 enzymes.)
Data set [5] can be described thus: Plasma protein binding in mouse. Type of data set: ADME, cell-free. To be noted: read-out: PPB.
Data set [6] concerns the target T1, Hepatic sodium/bile acid cotransporter. Kind of data set: Inhibition of human NTCP-mediated [3H]-TCA uptake expressed in human HepG2 cells pretreated for 2 hrs followed by [3H]-TCA addition in absence of FBS. In kind it is cell-based.
Data set [7] concerns Mus musculus. Description: Effect on human NTCP knock-in C57B/L mouse assessed as increase in total bile acid level at 50 mg/kg, ip administered twice daily for 3 days. Type of data set: functional, organism-based. Particulars: time 3.0 day.
A short description of data set [8]: Half life in ip dosed C57B/L mouse by LC/MS analysis. Particulars: in vivo. In kind it is ADME, organism-based.
In data set [9] the target is T1, Hepatic sodium/bile acid cotransporter. Description: Inhibition of human NTCP-mediated [3H]-TCA uptake expressed in human HepG2 cells in presence of human serum. Type of data set: cell-based.
A short description of data set [10]: Stability in mouse liver microsomes assessed as intrinsic clearance at 1 uM preincubated for 5 mins followed by NADPH addition and measured upto 60 mins by LC-MS analysis. Particulars: time 65 min, read-out: CLH. Type of data set: ADME, Microsome.
Data set [11] is described as follows: Bioavailability in ip dosed C57B/L mouse by LC/MS analysis. In kind it is ADME, organism-based. Particulars: in vivo.
The nature of data set [12]: Stability in human liver microsomes assessed as intrinsic clearance at 1 uM preincubated for 5 mins followed by NADPH addition and measured upto 60 mins by LC-MS analysis. Type of data set: ADME, Microsome. Particulars: time 65 min, read-out: CLH.
The subject of data set [13] is HepG2. Kind of data set: Inhibition of human NTCP-mediated [3H]-TCA uptake expressed in human HepG2 cells in presence of bovine serum. Type of data set: cell-based. Particulars: Bos taurus.
A short description of data set [14]: Toxicity in C57B/L mouse assessed as effect on ALT level at 50 mg/kg, ip administered twice daily for 3 days. Type of data set: organism-based. Particulars: in vivo, 72 h, time 3 day.
The nature of data set [15]: Stability in mouse liver microsomes assessed as half life at 1 uM preincubated for 5 mins followed by NADPH addition and measured upto 60 mins by LC-MS analysis. In kind it is ADME, Microsome. Particulars: time 65 min.
The subject of data set [16] is Mus musculus. Description: Effect on wild-type C57B/L mouse assessed as increase in total bile acid level at 50 mg/kg, ip administered twice daily for 3 days. In kind it is functional, organism-based. Particulars: time 3.0 day.
In data set [17] the test system is Hepatitis B virus. Kind of data set: Antiviral activity against HBV infected in human HepG2-NTCP cells assessed as reduction in HBeAg secretion incubated for 24 hrs followed replacement with fresh medium and measured at day 5 post infection by ELISA. Type of data set: functional, organism-based.
Data set [18] concerns the target T1, Hepatic sodium/bile acid cotransporter. Kind of data set: Inhibition of human NTCP-mediated [3H]-TCA uptake expressed in human HepG2 cells in presence of 20 % FBS. Type of data set: cell-based.
For data set [19], the target named is T2, Hepatic sodium/bile acid cotransporter (Mus musculus, UniProt O08705).
T2 sequence (O08705 whole entry): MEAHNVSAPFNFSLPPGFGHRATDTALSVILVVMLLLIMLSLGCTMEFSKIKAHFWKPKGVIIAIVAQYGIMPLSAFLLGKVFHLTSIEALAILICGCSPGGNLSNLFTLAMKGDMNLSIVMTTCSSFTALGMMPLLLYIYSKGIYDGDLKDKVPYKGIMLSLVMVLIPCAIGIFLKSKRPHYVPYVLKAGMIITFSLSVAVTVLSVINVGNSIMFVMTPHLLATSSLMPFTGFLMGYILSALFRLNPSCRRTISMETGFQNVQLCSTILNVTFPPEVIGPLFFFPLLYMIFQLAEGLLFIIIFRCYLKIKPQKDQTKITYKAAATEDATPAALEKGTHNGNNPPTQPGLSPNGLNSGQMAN
Description: Inhibition of mouse NTCP-mediated [3H]-TCA uptake expressed in human HepG2 cells in presence of human serum. In kind it is cell-based.

The target of data set [20] is T2, Hepatic sodium/bile acid cotransporter. Kind of data set: Inhibition of mouse NTCP-mediated [3H]-TCA uptake expressed in human HepG2 cells in presence of mouse serum. Type of data set: cell-based.
A short description of data set [21]: Oral bioavailability in C57B/L mouse by LC/MS analysis. Type of data set: ADME, organism-based. To be noted: in vivo.

Calls of active or inactive are those of the source. The rule behind the calls is not given here.

Usually IC50 stands for the point on the concentration scale where inhibition reaches its midpoint. Broadly, the half-life is how long it takes for the measured level to halve. As usually defined, the bioavailability is dose-corrected exposure relative to a reference, in per cent. Read a high bioavailability as good availability. Regarding `C[C@@H]1CCC(=O)NC(C(=O)NCCS(=O)(=O)O)CNC(=O)CC[C@@H](C)[C@H]2CC[C@H]3[C@@H]4[C@@H](O)C[C@@H]5C[C@@H](CC[C@]5(C)[C@H]4CC[C@]23C)n2cc(nn2)CO[C@@H]2CC[C@@]3(C)[C@@H](C2)C[C@H](O)[C@@H]2[C@@H]3CC[C@]3(C)[C@@H]1CC[C@@H]23` (stereo partly specified), the Activity entry in data set [1] and in [14] was “Non-Toxic” in each case. In addition, the fraction unbound in data set [2] and in [5] was 0.01 throughout. Besides, the IC50 in data set [3] was found to be 81.5 nM; in data set [6], 23.5 nM; in data set [17], 178 nM; in data set [18] it was 54 nM. In addition, the values for the half-life at 1 µM in [4] and in data set [15] were 1.89 h and 0.929 h, respectively. Besides, in data set [7], the outcome was Active. The compound also had a half-life in data set [8] of 1.6 h. The “inhibition (INH)” value in data set [9] is “Active”; in [19] it was “Not Active”; in data set [20] it was “Not Active”. Further, the microsomal CLint at 1 µM was 12 µL/min/mg in [10] and 6.1 µL/min/mg in data set [12]. Also, the bioavailability in data set [11] is 32%; in data set [21], 1.3%. Besides, in [13], the inhibition entry was “Active”. The result in [16] was inactive.
